In one experiment the test system is Aspergillus species. In words: Minimum inhibitory concentration (MIC) assay, filamentous fungi. It is filed as cell-based. To be noted: antifungal activity, lowest concentration at which 75% inhibition of growth is observed after 48 h. The procedure, abridged: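 Broth microdilution following NCCLS M38-P, in MOPS-buffered medium at pH 7.0, with seven 1:2 serial dilutions starting at a final 50 μM. Conidial inoculum came from 7-day potato dextrose agar slants, adjusted to OD 0.09–0.11 then diluted. MIC = lowest concentration giving 75% growth inhibition after 48 h at 35 °C.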

For the next experiment, the system named is bacteria. The experiment can be described thus: Minimum inhibitory concentration (MIC) assay, bacteria. The format is cell-based. The procedure, abridged: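 Broth microdilution adapted from NCCLS M7-A4; compounds from 10 mM DMSO stocks serially diluted 1:2 in growth medium suited to each bacterium. Inoculum adjusted to 0.5 McFarland in saline, final 1:200 dilution; MIC is lowest concentration preventing visible growth.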

Counter-ions that a name gives are not always drawn.

The MIC is the least concentration at which growth counts as inhibited. Read a low MIC as inhibition by little substance.

For `N=C(N)NCCCNC(=O)c1ccc2[nH]c(C(=O)Nc3ccc4[nH]c(C(=O)NCCNC(=N)N)cc4c3)cc2c1` [Compound 58, 1H-Indole-2,5-dicarboxylic acid 2-{[2-(2-guanidinoethylcarbamoyl)-1H-indol-5-yl]amide} 5-[(3-guanidinopropyl)amide]dihydrochloride], the MIC was no more than 50 µM against Aspergillus species and no more than 45.5 µM in the experiment with bacteria.

For `N=C(N)NCCNC(=O)c1ccc2[nH]c(C(=O)Nc3ccc4[nH]c(C(=O)NCCNC(=N)N)cc4c3)cc2c1` [Compound 82, 1H-Indole-2,5-dicarboxylic acid 5-[(2-guanidino-ethyl)-amide] 2-{[2-(2-guanidino-ethylcarbamoyl)-1H-indol-5-yl]-amide}], the MIC against Aspergillus species is no more than 50 µM; with bacteria, no more than 45.5 µM.

As for `N=C(N)NCCCNC(=O)c1cc2ccc(NC(=O)c3cc4cc(C(=O)NCCNC(=N)N)ccc4[nH]3)cc2[nH]1` [Compound 62, 1H-Indole-2,5-dicarboxylic acid 5-[(2-guanidino-ethyl)-amide] 2-{[2-(3-guanidino-propylcarbamoyl)-1H-indol-6-yl]-amide}], the MIC is no more than 50 µM with Aspergillus species and no more than 45.5 µM in the experiment with bacteria.

`C/N=C(\NC)NCCCNC(=O)c1ccc2[nH]c(C(=O)Nc3ccc4[nH]c(C(=O)NCCCN/C(=N/C)NC)cc4c3)cc2c1` [Compound 77, 1H-Indole-2,5-dicarboxylic acid 5-[(3-(N′,N″-dimethyl-guanidino)-propyl)-amide] 2-{[2-(3-(N′,N″-dimethyl-guanidino)-propylcarbamoyl)-1H-indol-5-yl-]-amide}]: the MIC in the experiment with Aspergillus species was no more than 50 µM; in the experiment with bacteria, no more than 45.5 µM.

The values are drawn from patent publication US7141680B2, “Aromatic compounds possessing antifungal or antibacterial activity” (Genelabs Technologies, Inc., priority 2002, dated 2006).
